From ChEMBL document CHEMBL1201862, “PubChem BioAssay data set” (2004)
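Tested at 5 concentrations; 48 h exposure; 96-well plates; endpoints linearly interpolated, else capped at highest concentration. The concentration for 50% growth inhibition is given as GI50.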 Active and inactive are the calls of the source. Cut-off read from the data, not from the text of the source: active = GI50 up to about 1.1 µM and inactive = higher.

Assays:
Assay in all cases: NCI-60 cell line screen, 48 h
SW-620 = tested on: SW-620
SF-539 = tested on: SF-539
UO-31 = tested on: UO-31
SK-MEL-2 = tested on: SK-MEL-2
DU-145 = tested on: DU-145
RXF 393 = tested on: RXF 393
NCI/ADR-RES = tested on: NCI/ADR-RES
MCF7 = tested on: MCF7
PC-3 = tested on: PC-3
NCI-H226 = tested on: NCI-H226
HOP-62 = tested on: HOP-62
HCC 2998 = tested on: HCC 2998
SN12C = tested on: SN12C
OVCAR-3 = tested on: OVCAR-3
NCI-H460 = tested on: NCI-H460
A498 = tested on: A498
MOLT-4 = tested on: MOLT-4
NCI-H522 = tested on: NCI-H522
HT-29 = tested on: HT-29
Hs-578T = tested on: Hs-578T
LOX IMVI = tested on: LOX IMVI
OVCAR-8 = tested on: OVCAR-8
OVCAR-4 = tested on: OVCAR-4
HL-60 = tested on: HL-60
HOP-92 = tested on: HOP-92
TK-10 = tested on: TK-10
OVCAR-5 = tested on: OVCAR-5
A549 = tested on: A549
SK-MEL-5 = tested on: SK-MEL-5
EKVX = tested on: EKVX
K562 = tested on: K562
HCT-116 = tested on: HCT-116
KM12 = tested on: KM12
786-0 = tested on: 786-0
SNB-75 = tested on: SNB-75
CAKI-1 = tested on: CAKI-1
ACHN = tested on: ACHN
SK-OV-3 = tested on: SK-OV-3
MDA-MB-231 = tested on: MDA-MB-231
SF-268 = tested on: SF-268
SNB-19 = tested on: SNB-19
MDA-N = tested on: MDA-N
IGROV-1 = tested on: IGROV-1
Malme-3M = tested on: Malme-3M
UACC-62 = tested on: UACC-62
COLO 205 = tested on: COLO 205
T47D = tested on: T47D
CCRF-CEM = tested on: CCRF-CEM
HCT-15 = tested on: HCT-15
SK-MEL-28 = tested on: SK-MEL-28
UACC-257 = tested on: UACC-257
M14 = tested on: M14
MDA-MB-435 = tested on: MDA-MB-435
RPMI-8226 = tested on: RPMI-8226
U-251 = tested on: U-251
NCI-H23 = tested on: NCI-H23
SF-295 = tested on: SF-295
SR = tested on: SR

SMILES: COc1cccc(N(CN2CC=CC2=O)C(C)=O)c1
- GI50 (SW-620): > 100 µM (inactive)
- GI50 (SF-539): > 100 µM (inactive)
- GI50 (UO-31): > 100 µM (inactive)
- GI50 (SK-MEL-2): > 100 µM (inactive)
- GI50 (DU-145): > 100 µM (inactive)
- GI50 (RXF 393): > 100 µM (inactive)
- GI50 (NCI/ADR-RES): > 100 µM (inactive)
- GI50 (MCF7): > 100 µM (inactive)
- GI50 (PC-3): > 100 µM (inactive)
- GI50 (NCI-H226): > 100 µM (inactive)
- GI50 (HOP-62): > 100 µM (inactive)
- GI50 (HCC 2998): > 100 µM (inactive)
- GI50 (SN12C): > 100 µM (inactive)
- GI50 (OVCAR-3): > 100 µM (inactive)
- GI50 (NCI-H460): > 100 µM (inactive)
- GI50 (A498): > 100 µM (inactive)
- GI50 (MOLT-4): > 100 µM (inactive)
- GI50 (NCI-H522): > 100 µM (inactive)
- GI50 (HT-29): > 100 µM (inactive)
- GI50 (Hs-578T): > 100 µM (inactive)
- GI50 (LOX IMVI): > 100 µM (inactive)
- GI50 (OVCAR-8): > 100 µM (inactive)
- GI50 (OVCAR-4): > 100 µM (inactive)
- GI50 (HL-60): > 100 µM (inactive)
- GI50 (HOP-92): > 100 µM (inactive)
- GI50 (TK-10): > 100 µM (inactive)
- GI50 (OVCAR-5): > 100 µM (inactive)
- GI50 (A549): > 100 µM (inactive)
- GI50 (SK-MEL-5): > 100 µM (inactive)
- GI50 (EKVX): > 100 µM (inactive)
- GI50 (K562): > 100 µM (inactive)
- GI50 (HCT-116): > 100 µM (inactive)
- GI50 (KM12): > 100 µM (inactive)
- GI50 (786-0): > 100 µM (inactive)
- GI50 (SNB-75): > 100 µM (inactive)
- GI50 (CAKI-1): > 100 µM (inactive)
- GI50 (ACHN): > 100 µM (inactive)
- GI50 (SK-OV-3): > 100 µM (inactive)
- GI50 (MDA-MB-231): > 100 µM (inactive)
- GI50 (SF-268): > 100 µM (inactive)
- GI50 (SNB-19): > 100 µM (inactive)
- GI50 (MDA-N): > 100 µM (inactive)
- GI50 (IGROV-1): > 100 µM (inactive)
- GI50 (Malme-3M): > 100 µM (inactive)
- GI50 (UACC-62): > 100 µM (inactive)
- GI50 (COLO 205): > 100 µM (inactive)
- GI50 (T47D): > 100 µM (inactive)
- GI50 (CCRF-CEM): > 100 µM (inactive)
- GI50 (HCT-15): > 100 µM
- GI50 (SK-MEL-28): > 100 µM (inactive)
- GI50 (UACC-257): > 100 µM (inactive)
- GI50 (M14): > 100 µM (inactive)
- GI50 (MDA-MB-435): > 100 µM (inactive)
- GI50 (RPMI-8226): > 100 µM (inactive)
- GI50 (U-251): > 100 µM (inactive)
- GI50 (NCI-H23): > 100 µM (inactive)
- GI50 (SF-295): > 100 µM (inactive)

SMILES: O=C(/C=C/c1ccc2ccccc2c1)NCc1ccc(C(=O)NCCc2ccccc2)cc1
- GI50 (SW-620): > 100 µM (inactive)
- GI50 (UO-31): > 100 µM (inactive)
- GI50 (SK-MEL-2): > 100 µM (inactive)
- GI50 (DU-145): > 100 µM (inactive)
- GI50 (RXF 393): > 100 µM (inactive)
- GI50 (NCI/ADR-RES): > 100 µM (inactive)
- GI50 (MCF7): > 100 µM (inactive)
- GI50 (PC-3): > 100 µM (inactive)
- GI50 (NCI-H226): 43.5 µM (inactive)
- GI50 (HOP-62): > 100 µM (inactive)
- GI50 (HCC 2998): > 100 µM (inactive)
- GI50 (SN12C): > 100 µM (inactive)
- GI50 (OVCAR-3): > 100 µM (inactive)
- GI50 (SR): > 100 µM (inactive)
- GI50 (NCI-H460): > 100 µM (inactive)
- GI50 (A498): > 100 µM (inactive)
- GI50 (MOLT-4): > 100 µM (inactive)
- GI50 (LOX IMVI): > 100 µM (inactive)
- GI50 (OVCAR-8): > 100 µM (inactive)
- GI50 (OVCAR-4): > 100 µM (inactive)
- GI50 (HL-60): 43.7 µM (inactive)
- GI50 (HOP-92): > 100 µM (inactive)
- GI50 (OVCAR-5): > 100 µM (inactive)
- GI50 (A549): > 100 µM (inactive)
- GI50 (SK-MEL-5): > 100 µM (inactive)
- GI50 (K562): 52 µM (inactive)
- GI50 (HCT-116): > 100 µM (inactive)
- GI50 (KM12): > 100 µM (inactive)
- GI50 (786-0): 64.3 µM (inactive)
- GI50 (SNB-75): 41.5 µM (inactive)
- GI50 (CAKI-1): > 100 µM (inactive)
- GI50 (ACHN): > 100 µM (inactive)
- GI50 (SK-OV-3): > 100 µM (inactive)
- GI50 (MDA-MB-231): > 100 µM (inactive)
- GI50 (SF-268): > 100 µM (inactive)
- GI50 (SNB-19): > 100 µM (inactive)
- GI50 (MDA-N): > 100 µM (inactive)
- GI50 (UACC-62): > 100 µM (inactive)
- GI50 (COLO 205): > 100 µM (inactive)
- GI50 (T47D): 65.5 µM (inactive)
- GI50 (CCRF-CEM): > 100 µM (inactive)
- GI50 (HCT-15): > 100 µM
- GI50 (SK-MEL-28): > 100 µM (inactive)
- GI50 (UACC-257): > 100 µM (inactive)
- GI50 (M14): > 100 µM (inactive)
- GI50 (MDA-MB-435): > 100 µM (inactive)
- GI50 (RPMI-8226): > 100 µM (inactive)
- GI50 (U-251): > 100 µM (inactive)
- GI50 (NCI-H23): > 100 µM (inactive)
- GI50 (SF-295): > 100 µM (inactive)

SMILES: c1ccc(C2=C(c3ccccc3)P(c3ccccc3)C2)cc1 (stereo not given)
- GI50 (SW-620): 64 µM (inactive)
- GI50 (SF-539): > 100 µM (inactive)
- GI50 (SK-MEL-2): > 100 µM (inactive)
- GI50 (DU-145): > 100 µM (inactive)
- GI50 (RXF 393): > 100 µM (inactive)
- GI50 (NCI/ADR-RES): 40.1 µM (inactive)
- GI50 (MCF7): > 100 µM (inactive)
- GI50 (PC-3): 48.1 µM (inactive)
- GI50 (NCI-H226): 53.2 µM (inactive)
- GI50 (HOP-62): > 100 µM (inactive)
- GI50 (HCC 2998): > 100 µM (inactive)
- GI50 (SN12C): > 100 µM (inactive)
- GI50 (OVCAR-3): 78.7 µM (inactive)
- GI50 (SR): 22.8 µM (inactive)
- GI50 (NCI-H460): 92.3 µM (inactive)
- GI50 (A498): > 100 µM (inactive)
- GI50 (MOLT-4): 22.1 µM (inactive)
- GI50 (NCI-H522): 47.6 µM (inactive)
- GI50 (HT-29): > 100 µM (inactive)
- GI50 (Hs-578T): 40.5 µM (inactive)
- GI50 (OVCAR-8): 89.7 µM (inactive)
- GI50 (OVCAR-4): > 100 µM (inactive)
- GI50 (HOP-92): > 100 µM (inactive)
- GI50 (TK-10): > 100 µM (inactive)
- GI50 (OVCAR-5): > 100 µM (inactive)
- GI50 (A549): 43.4 µM (inactive)
- GI50 (HCT-116): 83.4 µM (inactive)
- GI50 (KM12): 49.7 µM (inactive)
- GI50 (786-0): > 100 µM (inactive)
- GI50 (SNB-75): 32.7 µM (inactive)
- GI50 (CAKI-1): > 100 µM (inactive)
- GI50 (ACHN): > 100 µM (inactive)
- GI50 (SK-OV-3): > 100 µM (inactive)
- GI50 (MDA-MB-231): > 100 µM (inactive)
- GI50 (SF-268): > 100 µM (inactive)
- GI50 (MDA-N): > 100 µM (inactive)
- GI50 (IGROV-1): 64.3 µM (inactive)
- GI50 (Malme-3M): 67.1 µM (inactive)
- GI50 (COLO 205): > 100 µM (inactive)
- GI50 (T47D): > 100 µM (inactive)
- GI50 (CCRF-CEM): 22.5 µM (inactive)
- GI50 (HCT-15): > 100 µM
- GI50 (SK-MEL-28): > 100 µM (inactive)
- GI50 (UACC-257): > 100 µM (inactive)
- GI50 (M14): > 100 µM (inactive)
- GI50 (MDA-MB-435): 57.4 µM (inactive)
- GI50 (U-251): 68.1 µM (inactive)
- GI50 (SF-295): 41 µM (inactive)
